The source of these data is patent US20240174680A1, “CDK2 INHIBITORS AND METHODS OF USING THE SAME” (Cedilla Therapeutics, Inc., priority 2021, published 2024).

Where only a bound is given, the exact number is not on record here.

The target of experiment [1] is T1, CDK2/Cyclin E1 (Homo sapiens, UniProt P24941). The experiment is described as follows: CDK2/Cyclin E1 Caliper LabChip EZ Reader mobility shift assay. The class given is biochemical. Also on record: purchased Eurofins 14-475. The note with it: read-out: Caliper Assay (CDK2/CCNE1): IC50. The method in brief: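 Substrate-to-product conversion of fluorescent peptide (1.5 μM final) read by capillary electrophoresis after 100 min reaction, EDTA-quenched. Enzyme (2.5 nM final) and ATP (100 μM final) were preincubated 30 min with inhibitor dilutions first. % activity vs concentration fitted four-parameter for IC50.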

In another experiment the test system is Kuramochi cells. The experiment is described as follows: BrdU cell proliferation assay (colorimetric ELISA). Format: cell-based. The note with it: read-out: BrdU - KURAMOCHI.1: IC50. Here is the method: A BrdU assay was used as a measure of proliferation based on the DNA replication process of proliferating cells. BrdU, a pyrimidine analog, is added to the cell culture and incorporated into the DNA of proliferating cells. The presence of the BrdU analog was then measured through a colorimetric ELISA. After fixation and permeabilization of cells, peroxidase-conjugated antibody recognizing BrdU is added and allowed to incubate, followed by thorough washing to remove unbound antibody. In order to quantify the amount of bound antibody, peroxidase substrate is added and produces a color that can be measured at 450 nm.
On day −1, Kuramochi cells (Sekisui XenoTech JCRB0098) were seeded at 2,000 cells/well in columns 2-12 of a 96 well plate (Corning, CLS3596) in 150 μL media and allowed to adhere overnight at 37 degree with 5% CO2.
On day 0, the source plate was prepared by adding 10 mM compounds and performing 3-fold serial dilutions for a 10-point dose response of each compound. Using a multichannel pipette, 2 μL of the contents of the source plate were stamped into an intermediate plate with 500 μL of RPMI 1640 Media, GlutaMAX Supplement (Life Technologies, 61870127) in each well of a Nunc 96 DeepWell™ plate, non-treated 96 DeepWell plate, 2 mL/well, sterile, natural, 60/cs (Sigma Z717274) and mixed thoroughly. 50 μL from each well of this intermediate plate were added to 4 wells of a 96-well plate with previously seeded Kuramochi cells.
On day 4, the plates were developed using the BrdU ELISA Cell Proliferation Assay according to manufacturer's instructions (Roche, 11647229001). Briefly, BrdU was diluted 1:100 in Gibco®, OptiMEM® and 20 μL/well was added, shaken for 10 minutes at 350 rpm, and then returned to the incubator for 1 hour. Following incubation, the medium was discarded, and the cells were fixed by adding 200 μL of Fix/Denature solution. The anti-BrdU peroxidase antibody was diluted 1:1000 in OptiMEM, added at 100 μL/well, and incubated while shaking (350 rpm) for one hour. Three washes with PBS were performed to remove any unbound antibody, followed by the addition of 100 μL of substrate solution to each well. 25 μL/well of 1M sulfuric acid solution was then added to halt the reaction, and plates were read out using an Envision spectrophotometer (Perkin Elmer) set to read 450 nm absorbance. Background absorbance values from empty wells were subtracted from all samples and then normalized to DMSO treated wells.

Experiment [2] has as its system Kuramochi cells labeled with mApple-H2B. Description: IncuCyte cell proliferation assay. The following applies: 72 hours. The class given is cell-based. Here is the method:
IncuCyte® assay was used to measure the effect of disclosed compounds on cell proliferation. Fluorescent microscopy images of cells were taken immediately after compound treatment and 72 hours later. Image analysis software was used to obtain cell counts as a function of compound concentration. Kuramochi cells labeled with mApple-H2B were seeded on 384-well assay-ready plates. Plates were placed in an IncuCyte® (Sartorius) and scanned at 0 and 72 hours. IncuCyte® software was used to count the number of fluorescent nuclei in each well. The fold change in cell count from 0 to 72 hours in wells treated with increasing compounds concentrations (10 pts, 1/2 log dilution, 20 μM top concentration) was normalized to DMSO control wells. The normalized cell counts were fit with dose response curves and a […] was calculated.
Compounds with an ICp greater than 0.5 μM and less than or equal to 5.0 μM are designated as “B”.

In experiment [3] the target is T1, CDK2/Cyclin E1. Description: HotSpot kinase inhibition assay (radiometric, Histone H1 substrate). The class given is biochemical. The following applies: 10 μM ATP, read-out: Kinase Assay (CDK2/CCNE): IC50. How it is done: Inhibition of CDK2/CCNE1 activities in the presence of compounds of the present disclosure was evaluated using the HotSpot™ assay (proprietary to Reaction Biology Corporation). In the assay, CDK2/Cyclin E1 (Signalchem C29-18G) catalyzed the transfer of radioactive phosphate to amino acid residues of Histone H1 (Sigma, H5505), which are detected radiometrically.
Reactions contained 20 mM HEPES pH 7.5, 10 mM MgCl2, 1 mM EGTA, 2 mM DTT, 0.02% Brij35, 0.02 mg/mL BSA, 0.1 mM Na3VO4, 1% DMSO, 1.5 nM CDK2/Cyclin E1, 10 μM ATP, and 20 μM Histone H1.
CDK2/Cyclin E1 and Histone H1 were mixed in reaction buffer. To this mixture dose titrations of inhibitors in 100% DMSO were added in by acoustic transfer. The compound mixtures were incubated for 20 minutes, then the kinase reactions were initiated by the addition of a mixture of ATP and ^33P ATP for final concentrations of 10 μM total ATP, 20 μM Histone H1, and 1.5 nM CDK2/Cyclin E1. The reactions were carried out for 120 minutes, then spotted on a P81 ion exchange filter paper, and extensively washed with 0.75% phosphoric acid. The resulting radioactive counts were normalized to yield % activity, plotted against compound concentration, and fit to a four-parameter equation to determine the IC50 for each compound.

With `CNC(=O)[C@@H](NC(=O)[C@@H]1CN(C(=O)c2cncs2)CC12CN(CC1CCOCC1)C2)[C@@H](C)OCC12CCC(CC1)OC2` [I-346], the IC50 at CDK2/Cyclin E1 [1] was greater than 10 µM; with Kuramochi cells, greater than 10 µM; in experiment [2], greater than 20 µM.

With `C[C@@H](OCC1CCC(F)(F)CC1)[C@H](NC(=O)[C@@H]1CN(C(=O)c2cnn(Cc3ccc(F)cc3)c2)CC12CN(C(=O)C1(C(F)(F)F)CC1)C2)C(=O)N1CCC(F)(F)CC1` [I-190A], the IC50 was 0.01 to 0.1 µM on CDK2/Cyclin E1 [1] and no more than 0.5 µM in experiment [2]. Take `C[C@@H](OCC1CCOCC1)[C@@H](COC(F)F)NC(=O)[C@@H]1CN(C(=O)c2cncs2)CC12CN(C(=O)[C@H]1CC1(C)C)C2` [I-441]: in experiment [2], the IC50 is greater than 20 µM.

For the molecule `C[C@@H](OCc1ccccc1)[C@H](NC(=O)C1CN(C(=O)c2cnn(Cc3ccccc3)c2)CC12CN(C(=O)C1CC1(C)C)C2)C(=O)NCCCCCNC(=O)OC(C)(C)C` (stereo partly shown) [I-52], the IC50 (in the experiment on Kuramochi cells; in experiment [2]) was 0.5 to 5 µM each time. Regarding `COCC1CCCN(C(=O)[C@@H](NC(=O)[C@H]2CN(C(=O)c3cnn(Cc4ccccc4)c3)CC23CN(C(=O)[C@H]2CC2(C)C)C3)[C@@H](C)OCC2CCCCC2)C1` (stereo partly shown) [I-111], the IC50 was no more than 0.5 µM in the experiment on Kuramochi cells and 0.5 to 5 µM in experiment [2]. On to `CC(C)O[C@H]1C[C@@H](NC(=O)[C@@H]2CN(C(=O)c3cnn(Cc4ccccc4)c3)CC23CN(C(=O)[C@H]2CC2(C)C)C3)C1` [I-234], for which the IC50 on CDK2/Cyclin E1 [1] and in the experiment on Kuramochi cells was greater than 10 µM in each case. For the molecule `C[C@@H](OCC1CCC(F)(F)CC1)[C@H](NC(=O)C1CN(C(=O)c2cnn(Cc3ccc(F)cc3)c2)CC12CN(C(=O)C1(C(F)(F)F)CC1)C2)C(=O)N1CCC(F)(F)CC1` (single isomer, unassigned) [I-190B], the figures for the IC50 (with Kuramochi cells; in experiment [2]) were 0.5 to 5 µM and 5 to 20 µM, respectively.

`C[C@@H](OCC1CCOCC1)[C@H](NC(=O)[C@@H]1CN(C(=O)c2cncs2)CC12CN(C(=O)[C@H]1CC1(C)C)C2)C(=O)N1CCC(c2ccncc2)CC1` [I-442]: the IC50 in experiment [2] lay in the range of 5 to 20 µM. As for `CNC(=O)[C@@H](NC(=O)[C@H]1CN(Cc2cnn(C)c2)CC12CN(C(=O)[C@H]1CC1(C)C)C2)[C@@H](C)OCc1ccccc1` [I-47B], the IC50 on CDK2/Cyclin E1 [1] and in the experiment on Kuramochi cells was greater than 10 µM each time. With `C[C@@H](OCc1ccccc1)[C@H](NC(=O)C1CN(C(=O)c2cnn(Cc3ccccc3)c2)CC12CN(C(=O)C1CC1(C)C)C2)C(=O)NCCCCCN` (stereo partly shown) [I-57], the IC50 in the experiment with Kuramochi cells was greater than 10 µM. Take `CNC(=O)[C@@H](NC(=O)[C@@H]1CN(C(=O)c2cnn(Cc3ccccc3)c2)CC12CN(C(=O)CC1CC1)C2)[C@@H](C)OCc1ccccc1` [I-8A]: the IC50 on CDK2/Cyclin E1 [1] and on CDK2/Cyclin E1 [3] was 1 to 10 µM each time.

Turning to `CNC(=O)[C@@H](NC(=O)[C@@H]1CN(C(=O)c2cncs2)CC12CN(C(=O)[C@H]1CC1(C)C)C2)c1nnc(C2CCCCC2)o1` [I-429], the IC50 with Kuramochi cells is greater than 10 µM; in experiment [2], greater than 20 µM.
